Read-outs that look alike come from different tables or passages of the source.
Key:
[1] = biological target: T1, Na+K+Cl− co-transporter (Rattus norvegicus, UniProt E9PTX9); experiment: Na+K+Cl− cotransporter assay, 86Rb uptake in A7r5 cells; format: cell-based; conditions: 10 minutes at 37° C.; for % Inhibition of Control Values / % of Control Value: 10 μM; for inhibition at 10 µM: read-out: % Inhibition of Control Values; for remaining activity at 10 µM: read-out: % of Control Value
T1 construct: endogenous in cells; host or cells: A7r5 cells
T1 sequence (E9PTX9 1-1203): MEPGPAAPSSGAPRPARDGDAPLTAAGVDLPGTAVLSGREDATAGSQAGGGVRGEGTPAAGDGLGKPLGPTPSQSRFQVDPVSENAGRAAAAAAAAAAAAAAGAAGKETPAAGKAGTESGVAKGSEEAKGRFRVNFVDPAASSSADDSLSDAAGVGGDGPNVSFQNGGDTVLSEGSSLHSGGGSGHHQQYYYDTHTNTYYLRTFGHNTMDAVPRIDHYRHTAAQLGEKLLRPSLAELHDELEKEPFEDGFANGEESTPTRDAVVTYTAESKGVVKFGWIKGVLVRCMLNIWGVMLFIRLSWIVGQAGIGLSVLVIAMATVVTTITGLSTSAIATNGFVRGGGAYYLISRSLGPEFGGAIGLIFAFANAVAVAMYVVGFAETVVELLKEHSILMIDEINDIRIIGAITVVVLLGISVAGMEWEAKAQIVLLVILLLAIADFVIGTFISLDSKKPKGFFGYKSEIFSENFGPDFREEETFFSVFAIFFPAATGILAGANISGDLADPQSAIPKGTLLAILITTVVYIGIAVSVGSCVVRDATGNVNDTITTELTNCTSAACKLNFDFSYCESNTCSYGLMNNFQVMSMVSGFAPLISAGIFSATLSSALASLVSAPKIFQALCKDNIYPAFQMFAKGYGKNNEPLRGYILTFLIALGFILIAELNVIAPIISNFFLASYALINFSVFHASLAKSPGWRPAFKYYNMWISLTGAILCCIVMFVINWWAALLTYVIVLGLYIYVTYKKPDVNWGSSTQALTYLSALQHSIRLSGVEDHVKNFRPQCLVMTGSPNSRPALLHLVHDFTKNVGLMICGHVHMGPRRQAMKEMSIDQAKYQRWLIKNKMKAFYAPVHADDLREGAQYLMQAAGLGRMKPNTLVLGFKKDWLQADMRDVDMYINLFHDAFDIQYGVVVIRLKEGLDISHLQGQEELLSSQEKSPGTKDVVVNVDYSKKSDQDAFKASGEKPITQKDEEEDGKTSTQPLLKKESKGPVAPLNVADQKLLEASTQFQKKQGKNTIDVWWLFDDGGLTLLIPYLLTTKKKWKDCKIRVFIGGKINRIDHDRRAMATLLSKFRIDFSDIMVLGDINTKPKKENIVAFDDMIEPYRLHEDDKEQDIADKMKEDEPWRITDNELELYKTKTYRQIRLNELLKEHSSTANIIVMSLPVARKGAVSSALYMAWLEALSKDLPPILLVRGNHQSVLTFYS
Method: Na^+K^+Cl^− co-transporter activity was measured in vitro in A7r5 cells by measuring their uptake of ^86Rb (0.2 μCi) in 10 minutes at 37° C. as detected by scintillation counting. See Chassande, et al. (1988) “The Na^+/K^+/Cl^− Cotransport in C6 glioma cells. Properties and role in volume regulation.” Eur. J. Biochem. 171: 425433.

[2] = system: Sprague-Dawley rats; experiment: Kainic acid induced seizures in rats; format: in vivo, rat; set-up: key to Seizures Severity Mean ± SD (grade 0 to IV): seizure grade 0 = no response to IV = status epilepticus; conditions: 20 μmoles/kg IP; for Seizures Severity Mean ± SD (grade 0 to IV) / Seizures Mean ± SD (1 = yes, 0 = no): KA 15 mg/kg i.p.; for Seizures Mean ± SD (1 = yes, 0 = no): 2 hours; for change in vivo at 20 µmol/kg: Rattus norvegicus, 2 h, vs DMSO control
Method: Formulation of kainic acid was performed by NTS as a stock solution by reconstituting kainic acid with (100%) saline that was stored at 4° C. Vehicle control received saline solution. […] The research investigators were blinded to the treatment groups.
Solutions were prepared fresh daily just prior to use; dosing of all 10 rats with any given compound occurred on a single day after preparing the dosing solution. […] Unused remaining dosing solutions were stored frozen.
Animals were maintained in a temperature- and light-controlled environment in accord with the principles and procedures of the National Institutes of Health Guidelines for Care and Use of Laboratory Animals. Seizures were induced in adult, male Sprague-Dawley rats (260-300 g) by injection of KA (15 mg/kg, i.p.). In addition, animals were injected with test compounds following kainic acid to determine the effects on protection from epilepsy. Animals were monitored behaviorally for seizures for 2 hours after injection.
Seizure activity was initially characterized as either yes (1) or no (0) within a 2 hour period following injection of KA. A seizure severity grade was assigned based on the maximal response achieved on a scale from 0 to IV as follows: 0, no response; I, single limb clonus and scratching; II, multiple limb clonus and staggering gait; […], limb clonus, tonic extension of limbs and falling; IV, continuous grade III seizures for longer than 30 min (status epilepticus).
The results were expressed as the mean±standard deviation (SD). The significance of difference in the epileptic data was analyzed using a one-way analysis of variance (ANOVA) followed by Fisher's post hoc test. Repeated-measures ANOVA were computed on the monitoring data and the significance of the difference among groups were evaluated by Fisher's post hoc test.
All groups were subjected to kainic acid.
The induction of seizures in rats with kainic acid was determined as either yes seizures (1) or no seizures (0).

[3] = read-out: Percent reduction in Seizures
[4] = read-out: Percent reduction in Seizures Severity

Row | SMILES | % Inhibition of Control Values [1] | % of Control Value [1] | also measured
1 | CCCCNc1cc(C(=O)NN2CCCCC2)cc(S(N)(=O)=O)c1Oc1ccccc1 [NTP-2023, N-Piperidinyl 3-Aminosulfonyl-5-N-butylamino-4-phenoxybenzamide] | 23% | 77.3% | –
2 | CCCCNc1cc(C(=O)N(C)C)cc(S(N)(=O)=O)c1Oc1ccccc1 [NTP-2015, N,N-Dimethyl 3-Aminosulfonyl-5-N-butylamino-4-phenoxybenzamide] | – | – | Seizures Severity Mean ± SD (grade 0 to IV) [2]: 1.100 ± 1.197; Seizures Mean ± SD (1 = yes, 0 = no) [2]: 0.5000 ± 0.5270; change in vivo at 20 µmol/kg [2, 3]: -44.4%; change in vivo at 20 µmol/kg [2, 4]: -54.2%
3 | CCCCNc1cc(C(=O)N2CCCC2)cc(S(N)(=O)=O)c1Oc1ccccc1 [NTP-2022, N-Pyrrolidinyl Aminosulfonyl-5-N-butylamino-4-phenoxybenzamide] | – | – | Seizures Severity Mean ± SD (grade 0 to IV) [2]: 1.100 ± 1.101; Seizures Mean ± SD (1 = yes, 0 = no) [2]: 0.6000 ± 0.5164; change in vivo at 20 µmol/kg [2, 3]: -33.3%; change in vivo at 20 µmol/kg [2, 4]: -54.2%; inhibition at 10 µM [1]: 7%; remaining activity at 10 µM [1]: 92.7%
4 | CCCCNc1cc(C(=O)O[C@H](C)c2ccccc2)cc(S(N)(=O)=O)c1Oc1ccccc1 [NTP-2035, (R)-α-Methylbenzyl 3-Aminosulfonyl-5-N-butylamino-4-phenoxybenzoate] | 26% | 74.5% | –
5 | CCCCNc1cc(C(=O)NCCCN(C)C)cc(S(N)(=O)=O)c1Oc1ccccc1 [NTP-2025] | – | – | inhibition at 10 µM [1]: -27%; remaining activity at 10 µM [1]: 127%
6 | OC[C@@H](O)[C@@H](O)[C@H](O)[C@H](O)CO [Mannitol, reference compound] | – | – | Seizures Severity Mean ± SD (grade 0 to IV) [2]: 0.5000 ± 0.7071; Seizures Mean ± SD (1 = yes, 0 = no) [2]: 0.4000 ± 0.5164; change in vivo at 20 µmol/kg [2, 3]: -55.5%; change in vivo at 20 µmol/kg [2, 4]: -79.2%
7 | CCCCNc1cc(C(=O)OCc2ccc(OC)cc2)cc(S(N)(=O)=O)c1Oc1ccccc1 [NTP-2031, 4-Methoxybenzyl Aminosulfonyl-5-N-butylamino-4-phenoxybenzoate] | 7% | 92.6% | –
8 | CCCCNc1cc(C(=O)OCCCCc2ccccc2)cc(S(N)(=O)=O)c1Oc1ccccc1 [NTP-2034, 4-phenylbutyl 3-Aminosulfonyl-5-N-butylamino-4-phenoxybenzoate] | 21% | 78.9% | –
9 | CCCCNc1cc(C(=O)N[C@@H](C)c2ccccc2)cc(S(N)(=O)=O)c1Oc1ccccc1 [NTP-2021, (S)-α-Methylbenzyl 3-Aminosulfonyl-5-N-butylamino-4-phenoxybenzamide] | 27% | 72.6% | –
10 | CCCCNc1cc(C(=O)N(CC)CC)cc(S(N)(=O)=O)c1Oc1ccccc1 [NTP-2007, N,N-Diethyl 3-Aminosulfonyl-5-butylamino-4-phenoxybenzamide] | – | – | Seizures Severity Mean ± SD (grade 0 to IV) [2]: 1.500 ± 1.354; Seizures Mean ± SD (1 = yes, 0 = no) [2]: 0.6000 ± 0.5164; change in vivo at 20 µmol/kg [2, 3]: -33.3%; change in vivo at 20 µmol/kg [2, 4]: -37.5%; inhibition at 10 µM [1]: 30%; remaining activity at 10 µM [1]: 70.4%

Now from value to compound, other results behind:

Row | % Inhibition of Control Values [1] | % of Control Value [1] | SMILES | also measured
11 | 7% | 93.5% | CCCCNc1cc(C(=O)N[C@H](C)c2ccccc2)cc(S(N)(=O)=O)c1Oc1ccccc1 [NTP-2020, (R)-α-Methylbenzyl 3-Aminosulfonyl-5-N-butylamino-4-phenoxybenzamide] | –
12 | 13% | 87.3% | CCCCNc1cc(C(=O)NCc2ccccc2)cc(S(N)(=O)=O)c1Oc1ccccc1 [NTP-2018, N-Benzyl 3-Aminosulfonyl-5-N-butylamino-4-phenoxybenzamide] | –
13 | 16% | 84.4% | CCCCCCCCCCOC(=O)c1cc(NCCCC)c(Oc2ccccc2)c(S(N)(=O)=O)c1 [NTP-2028, n-Decyl Aminosulfonyl-5-N-butylamino-4-phenoxybenzoate] | –
14 | 12% | 88.4% | CCCCNc1cc(C(=O)OCC=C(C)C)cc(S(N)(=O)=O)c1Oc1ccccc1 [NTP-2029, 3-Methylbut-2-enyl Aminosulfonyl-5-N-butylamino-4-phenoxybenzoate] | –
15 | −7% | 107.2% | CCCCNc1cc(C(=O)NC)cc(S(N)(=O)=O)c1Oc1ccccc1 [NTP-2016, N-Methyl 3-Aminosulfonyl-5-N-butylamino-4-phenoxybenzamide] | –
16 | 20% | 80.1% | CCCCNc1cc(C(=O)O[C@@H](C)c2ccccc2)cc(S(N)(=O)=O)c1Oc1ccccc1 [NTP-2036, (S)-α-Methylbenzyl 3-Aminosulfonyl-5-N-butylamino-4-phenoxybenzoate] | –

From patent US9682928B2 (NeuroPro Therapeutics, Inc., priority 2009, dated 2017)
